Source: ChEMBL document CHEMBL3137667, “[Drug-induced liver injury; fourteenth updated edition of the bibliographic database of liver injuries and related drugs]” (Gastroenterol Clin Biol, 2004)

How the values were obtained:
[1] = Highest frequency of moderate liver toxicity observed during clinical trials, expressed as a percentage. [column '% BIOL' in source]; details: human
[2] = Highest frequency of acute liver toxicity observed during clinical trials, expressed as a percentage. [column '% AIGUE' in source]; details: human
[3] = Comments (NB not yet translated). [column 'COMMENTAIRES' in source]; details: human
[4] = Times to onset, minimal and maximal, observed in the indexed observations. [column 'DELAI' in source]; details: human
[5] = Proposed mechanism(s) of liver damage. [column 'MEC' in source]; details: human
[6] = human, serum
[7] = human, serum; remark: listed apart in the source
[8] = human
[9] = human; remark: listed apart in the source
[10] = human; remark: listed apart in the source
[11] = human, serum, 4383 h
[12] = human; remark: listed apart in the source
[13] = human; remark: listed apart in the source
[14] = human; remark: listed apart in the source
[15] = human; remark: listed apart in the source
[16] = human; remark: listed apart in the source
[17] = human; remark: listed apart in the source
[18] = human; remark: listed apart in the source
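For Hepatotoxicity (association with vascular disease) in this document: count of indexed literature references reporting vascular liver injury in humans, e.g. peliosis hepatitis, hepatic veno-occlusive disease or Budd-Chiari syndrome.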
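For Hepatotoxicity (benign tumour) in this document: value is a count of indexed literature references citing a benign tumour confirmed by histopathology.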
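For Hepatotoxicity (choleostasis) in this document: human cholestatic liver injury, shown by histopathology or by peak ALT or AST elevation over alkaline phosphatase ratio below 2, value counts indexed literature reports.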
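For Hepatotoxicity (chronic liver disease) in this document: chronic liver injury confirmed by histopathology or persistently raised serum aminotransferase activity beyond 6 months, value given as the count of indexed literature references.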
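For Hepatotoxicity (cirrhosis) in this document: value is a count of indexed literature references reporting cirrhosis confirmed by histopathology.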
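For Hepatotoxicity (cytolytic) in this document: human cytolytic liver injury, shown by histopathology or by a ratio above 5 of peak ALT or AST elevation to alkaline phosphatase elevation, value counts indexed references.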
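For Hepatotoxicity (granulomatous hepatitis) in this document: value is a count of indexed literature references reporting granulomatous liver disease confirmed by histopathology.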
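For Hepatotoxicity (malignant tumour) in this document: malignant tumour confirmed by histopathology, value gives the count of indexed literature references reporting it.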
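For Hepatotoxicity (severe hepatitis) in this document: human clinical data: severe hepatitis, meaning potentially life-threatening liver failure or clinically observed cases, the value counts how many indexed literature references report it.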
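For Hepatotoxicity (steatosis) in this document: steatosis confirmed by histopathology, value is the count of indexed references.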

Molecule | Hepatotoxicity (moderate) [1] | Hepatotoxicity (acute) [2] | Hepatotoxicity (comment) [3] | Hepatotoxicity (time to onset) [4] | Hepatotoxicity (mechanism) [5] | Hepatotoxicity (moderate) [6] | Hepatotoxicity (acute) [7] | Hepatotoxicity (cytolytic) [8] | Hepatotoxicity (choleostasis) [9] | Hepatotoxicity (severe hepatitis) [10] | Hepatotoxicity (chronic liver disease) [11] | Hepatotoxicity (cirrhosis) [12] | Hepatotoxicity (granulomatous hepatitis) [13] | Hepatotoxicity (association with vascular disease) [14] | Hepatotoxicity (steatosis) [15] | Hepatotoxicity (malignant tumour) [16] | Hepatotoxicity (benign tumour) [17] | Hepatotoxicity (animal toxicity known) [18] | further results
FC(F)OC(F)C(F)(F)F (stereo not given) | 11.1% | 0% | AC_ANTI-TFA | 1 day - 12 days | Reactive metabolite, Allergic | 2 | 4 | 4 | 0 | 3 | 0 | 0 | 0 | 0 | 0 | 0 | 0 | yes | –
CC(=O)Oc1ccccc1C(=O)O [ASPIRIN] | 66% | 0% | #S.REYE | 1 week - 5 years | Dose-dependant, Reactive metabolite | 30 | 31 | 26 | 2 | 6 | 5 | 1 | 3 | 0 | 0 | 0 | 0 | yes | –
CO/N=C(\C(=O)N[C@@H]1C(=O)N2C(C(=O)O)=C(CSc3nc(=O)c(=O)[nH]n3C)CS[C@H]12)c1csc(N)n1 [CEFTRIAXONE] | 30% | 4.6% | PSEUDOLITHIASE | 2 days - 25 days | Dose-dependant | 71 | 7 | 3 | 2 | 0 | 0 | 0 | 0 | 0 | 0 | 0 | 0 | yes | –
O=C(O)c1cn(C2CC2)c2cc(N3CCNCC3)c(F)cc2c1=O [CIPROFLOXACIN] | – | – | DUCTOPENIE AC_ANTI-N/-ADN | 2 days - 6 months | Allergic, Dose-dependant | 114 | 21 | 7 | 12 | – | 1 | 0 | 0 | 0 | 1 | 0 | 0 | yes | Hepatotoxicity (moderate) ([1]; Liver): 46.4%; Hepatotoxicity (acute) ([2]; Liver): 0.2%; Hepatotoxicity (severe hepatitis) ([10]; Liver): 5
CN(C)CCCN1c2ccccc2CCc2ccc(Cl)cc21 [CLOMIPRAMINE] | 10.7% | 0% | RC/AMINEPTINE | 1 week - 4 years | Allergic | 11 | 6 | 3 | 2 | 0 | 0 | 0 | 0 | 0 | 0 | 0 | 0 | yes | –
COc1cccc2c1C(=O)c1c(O)c3c(c(O)c1C2=O)C[C@@](O)(C(C)=O)C[C@@H]3O[C@H]1C[C@H](N)[C@H](O)[C@H](C)O1 [DAUNORUBICIN] | 68% | 0% | I/THIOGUANINE | 3 cures | – | 3 | 2 | 2 | 0 | 0 | 0 | 0 | 0 | 2 | 0 | 0 | 0 | yes | –
CNCCCN1c2ccccc2CCc2ccccc21 [DESIPRAMINE] | – | – | RC/IMIPRAMINE/TRIMIPRAMINE/CYAMEMAZINE | 1 week - 1 month | – | 4 | – | – | – | – | 0 | 0 | – | 0 | 0 | 0 | 0 | yes | Hepatotoxicity (moderate) ([1]; Liver): 8.7%; Hepatotoxicity (acute) ([2]; Liver): 0%; Hepatotoxicity (mechanism) ([5]; Liver): Allergic; Hepatotoxicity (cytolytic) ([8]; Liver): 5; Hepatotoxicity (choleostasis) ([9]; Liver): 1; Hepatotoxicity (severe hepatitis) ([10]; Liver): 1; Hepatotoxicity (granulomatous hepatitis) ([13]; Liver): 0
C=CC[C@@H]1/C=C(\C)C[C@H](C)C[C@H](OC)[C@H]2O[C@@](O)(C(=O)C(=O)N3CCCC[C@H]3C(=O)O[C@H](/C(C)=C/[C@@H]3CC[C@@H](O)[C@H](OC)C3)[C@H](C)[C@@H](O)CC1=O)[C@H](C)C[C@@H]2OC [TACROLIMUS ANHYDROUS] | 37% | 0% | MVO PELIOSE | 1 month - 3 months | – | 1 | 0 | 0 | 0 | 0 | 0 | 0 | 0 | 2 | 0 | 0 | 0 | yes | –
CN(C)[C@@H]1C(O)=C(C(N)=O)C(=O)[C@@]2(O)C(O)=C3C(=O)c4c(O)cccc4[C@@](C)(O)[C@H]3C[C@@H]12 [TETRACYCLINE] | 6.3% | 0% | CHOLESTASE_PROLONGEE DUCTOPENIE | 3 days - 2 months | – | 1 | 10 | 2 | 8 | 7 | 1 | 0 | 0 | 0 | 22 | 0 | 0 | yes | –
Clc1ccccc1CN1CCc2sccc2C1 [TICLOPIDINE] | – | – | CHOLANGITE CHOLESTASE_PROLONGEE AC_ANTI-N | 1 week - 3 years | – | – | – | – | – | – | 1 | 0 | – | 0 | 1 | 0 | 0 | yes | Hepatotoxicity (mechanism) ([5]; Liver): Allergic; Hepatotoxicity (cytolytic) ([8]; Liver): 15; Hepatotoxicity (choleostasis) ([9]; Liver): 56; Hepatotoxicity (granulomatous hepatitis) ([13]; Liver): 2
CC[C@]1(O)C[C@@H]2CN(CCc3c([nH]c4ccccc34)[C@@](C(=O)OC)(c3cc4c(cc3OC)N(C)[C@H]3[C@@](O)(C(=O)OC)[C@H](OC(C)=O)[C@]5(CC)C=CCN6CC[C@]43[C@@H]65)C2)C1 [VINBLASTINE] | 22.6% | 0% | I/DOXORUBICINE | 2 cures | – | 5 | 1 | 0 | 1 | 0 | 0 | 0 | 0 | 1 | 0 | 0 | 0 | yes | –
PARAFFIN | 0% | 0% | LIPOGRANULOMES | 10 years | – | 0 | 0 | 0 | 0 | 0 | 0 | 0 | 0 | 0 | 7 | 0 | 0 | yes | –
